From US11197857B2, “Combination therapy” (GlaxoSmithKline Intellectual Property Development Limited, priority 2016, dated 2021)
Like-named read-outs stand apart in the source and are kept apart here. Values belong to the molecule of their own block, whether it stands above or below them.

What was measured:
240 cancer cell lines = experiment: 10-day 2D growth assay, 240 cell lines; assay type: cell-based
Description: FIG. 34: Compound B gIC50 values in cancer cell lines (n=240) from 10 day 2D growth assay. ALL-acute lymphoblastic leukemia, AML-acute myeloid leukemia, CML-chronic myeloid leukemia, DLBCL-diffuse large B-cell lymphoma, HL-Hodgkin lymphoma, HN-head and neck cancer, MM-multiple myeloma, NHL-non-Hodgkin lymphoma, NSCLC-non-small cell lung cancer, PEL-primary effusion lymphoma, SCLC-small cell lung cancer, TCL-T-cell lymphoma.
The tumor types with median gIC50<100 nM were acute myeloid leukemia (AML), chronic myelogenous leukemia (CML), Hodgkin's Lymphoma (HL), multiple myeloma (MM), breast, glioma, kidney, melanoma, and ovarian cancer.

[1] = tested on: 19 enzymes: Type I and Type II PRMTs and lysine methyltransferases (KMTs); experiment: methyltransferase selectivity panel; assay type: biochemical; settings: for selectivity over other methyltransferases: PRMT5 tool compounds
Description: FIG. 31: Phylogenetic tree highlighting the methyltransferases tested in the selectivity panel. […] PRMT9 is shown for relationship purposes only within the family tree and was not evaluated in the panel. Figure adapted from Richon V M. et al.
PRMT9/FBXO11, which is the other Type II PRMT and the only PRMT to lack the THW loop, was not included due to the lack of a functional enzyme assay.

[2] = tested on: breast cancer cell lines (SKBR3, MDA-MB-468, MCF-7, ZR-75-1); experiment: longer-term (10-12 day) growth/death assay; assay type: cell-based; settings: SKBR3, MDA-MB-468 and MCF-7 cells, prolonged exposure (7-10 days)
PRMT5/MEP50 = PRMT5/MEP50 (Homo sapiens, UniProt O14744); experiment: PRMT5/MEP50 radioactive assay (3H transfer from SAM to H4 peptide / protein substrate); assay type: biochemical; settings: close analogs of Compound C
Sequence of PRMT5/MEP50 (O14744 whole entry): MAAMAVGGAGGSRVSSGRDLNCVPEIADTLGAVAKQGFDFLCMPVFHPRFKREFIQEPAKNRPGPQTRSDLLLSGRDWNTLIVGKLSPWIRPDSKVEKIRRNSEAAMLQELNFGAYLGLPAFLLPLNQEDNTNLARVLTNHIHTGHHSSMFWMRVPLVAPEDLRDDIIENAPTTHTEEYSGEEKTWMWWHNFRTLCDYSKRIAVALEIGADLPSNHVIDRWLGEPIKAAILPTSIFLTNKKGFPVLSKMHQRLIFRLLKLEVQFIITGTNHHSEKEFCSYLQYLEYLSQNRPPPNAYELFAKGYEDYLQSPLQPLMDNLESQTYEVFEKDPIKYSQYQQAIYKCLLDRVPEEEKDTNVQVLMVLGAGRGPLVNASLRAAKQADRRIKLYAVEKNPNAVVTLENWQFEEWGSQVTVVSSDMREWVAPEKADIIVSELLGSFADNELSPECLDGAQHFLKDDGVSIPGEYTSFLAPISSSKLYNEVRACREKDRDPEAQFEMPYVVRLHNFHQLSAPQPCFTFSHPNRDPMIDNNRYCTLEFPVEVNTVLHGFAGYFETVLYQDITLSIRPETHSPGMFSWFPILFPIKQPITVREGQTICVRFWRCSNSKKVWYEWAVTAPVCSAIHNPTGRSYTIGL
Sequence of PRMT5/MEP50 (Q9BQA1 whole entry partner): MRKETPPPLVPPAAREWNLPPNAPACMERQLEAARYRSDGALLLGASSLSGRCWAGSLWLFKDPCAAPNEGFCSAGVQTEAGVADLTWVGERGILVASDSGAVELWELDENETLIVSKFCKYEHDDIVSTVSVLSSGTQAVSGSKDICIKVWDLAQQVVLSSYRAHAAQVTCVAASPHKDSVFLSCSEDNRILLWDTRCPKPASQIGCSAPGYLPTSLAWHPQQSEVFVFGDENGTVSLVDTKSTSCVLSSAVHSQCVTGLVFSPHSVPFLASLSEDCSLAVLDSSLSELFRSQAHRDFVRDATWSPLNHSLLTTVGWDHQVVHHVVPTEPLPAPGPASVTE

MCL cell lines = experiment: 6-day growth/death CTG assay in MCL cell lines; assay type: cell-based; settings: for IC50: read-out: gIC50
4 breast cancer lines = experiment: propidium iodide FACS cell cycle analysis; assay type: cell-based; settings: after 7-10 days of treatment
[3] = tested on: MDA-MB-468 triple negative breast cancer xenograft model; experiment: MDA-MB-468 xenograft efficacy and PK/PD; assay type: in vivo
Description: Next, the efficacy of PRMT5 inhibition was evaluated in in vivo models of breast cancer.

SDMA in Z138 cells = experiment: SDMA ELISA; assay type: cell-based; settings: Homo sapiens
[4] = tested on: Z-138 MCL xenograft model; experiment: Z138 xenograft 21-day efficacy and PD; assay type: in vivo; settings: for TGI: 21-day
Description: (§1) B. Quantified SDMA western data from tumors harvested at the end of the efficacy study (3 hours post last dose).

[5] = tested on: gene expression in Z138 cells; experiment: qPCR gene expression (11 genes); assay type: cell-based; settings: Homo sapiens, Z-138, 96 h, day 4
[6] = tested on: Maver-1 MCL xenograft model; experiment: Maver-1 xenograft efficacy and PD; assay type: in vivo; settings: for TGI: day 18
Description: as §1

[7] = tested on: panel of cancer cell lines; experiment: cells; assay type: cell-based
Description: DLBCL-diffuse large B-cell lymphoma, GBM-glioblastoma, MCL-mantle cell lymphoma, MM-multiple myeloma
The cell lines were selected to represent tumor types where PRMT5 activity has been reported to regulate key pathways and/or cell growth and survival (such as lymphoma and MCL, glioma, breast and lung cancer lines).

[8] = tested on: SDMA in a panel of 5 MCL lines; experiment: SDMA inhibition in MCL panel; settings: read-out: SDMA IC50
Description: (B) SDMA IC50 values in a panel of MCL lines (EPIZYME data, day 4).

[9] = tested on: MDM4 splicing, SDMA, p53 and p21 in MCL lines; experiment: MDM4 splicing (RT-PCR) and SDMA/p53/p21 western; assay type: cell-based
Description: To understand whether p53 activation is associated with MDM4 isoform switching, MDM4 alternative splicing was analyzed. […] The role of the p53 pathway in the biology of the response of p53 wild-type MCL cells to PRMT5 inhibition is being evaluated.

Z138 MCL cells = experiment: 6-day growth/death assay; assay type: cell-based; settings: Z138, 6-day
GBM cell lines = experiment: 2D 6-day growth/death CTG assay; assay type: cell-based
[10] = tested on: patient-derived tumor models and cell lines (n=73); experiment: soft agar 3D colony formation assay; assay type: cell-based; settings: n=73 models
Description: FIG. 35: Compound E relative IC50 values from 8-13 day colony formation assay performed in patient-derived and cell line tumor models.
Tumor types with the lowest median IC50 values were large cell lung cancer, breast, kidney and glioma.

SMILES: O=C(NC[C@H](O)CN1CCc2ccccc2C1)c1ccnc(NC2CCC2)c1 [Compound B]
IC50 (240 cancer cell lines; AML, CML, HL, MM, breast, glioma, kidney, melanoma, ovarian cancer, read-out: median gIC50): < 0.1 µM
IC50 (240 cancer cell lines; majority of cell lines, read-out: gIC50): < 1 µM
selectivity over other methyltransferases [1]: Selectivity for PRMT5/MEP50 over the other methyltransferases
nature of response [2]: cytotoxic response
inhibitory potency compared with Compound C (PRMT5/MEP50): similar

SMILES: CC(=O)N1CCC(Nc2cc(C(=O)NC[C@H](O)CN3CCc4ccccc4C3)ncn2)CC1 [Compound C]
IC50 (MCL cell lines; 1 cell line of the MCL panel): > 1 µM
IC50 (MCL cell lines; 2 lines of the MCL panel): ≤ 0.1 µM
IC50 (MCL cell lines; 3 cell lines of the MCL panel): < 0.01 µM
sensitivity (MCL cell lines; Mino, Jeko-1 (ibrutinib sensitive lines)): only moderately sensitive
gIC50 (MCL cell lines; Z-138, Maver-1 and JVM-2): low
breast cancer lines with induction of cell death (increase in <2N) (4 breast cancer lines): 3 out of 4
SDMA inhibition ([3]; 100 mg/kg BID): greater than 90%
TGI ([3]; 100 mg/kg BID): 83%
SDMA inhibition ([3]; 100 mg/kg QD): less than 80%
efficacy ([3]; 100 mg/kg QD): not efficacious
EC50 (SDMA in Z138 cells; Z-138, 24 h, day 1): 0.0073 µM
EC50 (SDMA in Z138 cells; Z-138, 72 h, day 3): 0.00235 µM
IC50 (SDMA in Z138 cells; Z-138, 72 h, day 3): 0.00479 µM
EC90 (SDMA in Z138 cells; Z-138, 72 h, day 3, read-out: SDMA EC90 (complete inhibition above)): 0.019 µM
reduction of the methyl mark (SDMA western, tumors) ([4]; all dose groups): greater than 70%
body weight loss ([4]; all groups in all efficacy studies presented): no body weight loss
TGI ([4]; lowest dose group, 25 mg/kg BID): 40%
TGI ([4]; top 100 mg/kg BID dose group): > 90%
reduction of the methyl mark (SDMA western, tumors) ([4]; top dose groups): > 98%
EC50 [5]: 0.022 to 0.332 µM
reduction of the methyl mark (SDMA, tumors) ([6]; all dose groups): 80-95%
TGI ([6]; lowest dose group): 50%
TGI ([6]; top dose groups): > 90%
IC50 ([1]; any of the 19 enzymes): > 40 µM
potency for any other tested enzyme (FIG. 31) ([1]; phylogenetic tree symbol class): > 10^−5 M
IC50 ([7]; majority of cell lines tested, read-out: gIC50): < 1 µM
gIC50 ([7]; most sensitive lymphoma lines (MCL and DLBCL)): single digit nM range
IC50 [8]: 0.0003 to 0.014 µM
nature of response [2]: cytotoxic response
MDM4 isoform switching ([9]; Z138 and JVM-2 cells (both p53 wild-type)): induced MDM4 isoform switching
concentrations at which SDMA levels were undetectable by Western blot ([9]; Z138 cells): above 8 nM
concentrations at which changes in MDM4 splicing and p53/p21 protein expression were apparent ([9]; Z138 cells): above 8 nM
p53 and p21 expression ([9]; Z138 cells, 200 nM Compound C): increased p53 and p21 expression to similar levels
IC50 (Z138 MCL cells; Homo sapiens, Z-138, 144 h, read-out: gIC50): 0.0027 µM
gIC95 (Z138 MCL cells): 82 nM
gIC100 (Z138 MCL cells): 880 nM
IC50 (GBM cell lines; 144 h, GBM cell lines, 6-day, read-out: gIC50): 0.04 to 22 µM
nature of response (GBM cell lines; with the exception of the SF539 cell line): largely cytostatic

share of models with relative growth IC50 values below 1 μM [10]: 37%
inhibitory potency compared with Compound C (PRMT5/MEP50): similar
SMILES: O=C(NC[C@H](O)CN1CCc2ccccc2C1)c1cc(NC2COC2)ncn1 [Compound E]
selectivity over other methyltransferases [1]: Selectivity for PRMT5/MEP50 over the other methyltransferases

inhibitory potency compared with Compound C (PRMT5/MEP50): similar
SMILES: CC(=O)N1CCC(Nc2cc(C(=O)NC[C@H](O)CN3CCc4ccccc4C3)ccn2)CC1 [Compound F]
selectivity over other methyltransferases [1]: Selectivity for PRMT5/MEP50 over the other methyltransferases

SMILES: COc1ccc(C2=N[C@@H](c3ccc(Cl)cc3)[C@@H](c3ccc(Cl)cc3)N2C(=O)N2CCNC(=O)C2)c(OC(C)C)c1 [Nutlin-3, reference compound]
p53 and p21 expression ([9]; Z138 cells, 5 μM MDM2 inhibitor (Nutlin-3)): increased p53 and p21 expression to similar levels
